The supplement of paper PMC10307832

Key:
Experiment in all cases: relative viability (nuclei count vs DMSO), 5 days (fraction); higher = more cells survive
[1] = compound: O=C(Nc1cc(C(F)(F)F)cc(C(F)(F)F)c1)c1cc(Cl)ccc1O [IMD-0354] + Nc1ncn([C@H]2C[C@H](O)[C@@H](CO)O2)c(=O)n1 [Decitabine] (partner 2 µM)
How it was run: (§1)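 Each reported value is a median over duplicate plates. It expresses relative viability: treated-well nuclei count divided by vehicle-well nuclei count. Lung cancer cell lines in 1536-well plates were dosed by pin tool a day after seeding, alone with one drug or with a fixed anchor-drug dose plus five library-drug doses (not always all listed) in √10 steps, and nuclei were counted after 5 days.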

[2] = compound: Cc1cnc(CNC(=O)c2c(=O)c3ccc(N4CCCN(C)CC4)nc3n3c2sc2ccccc23)cn1 [CX-5461] + O=C(CCCCCCC(=O)Nc1ccccc1)NO [Vorinostat] (partner 1 µM)
How it was run: as §1

[3] = compound: O=C(Nc1cc(C(F)(F)F)cc(C(F)(F)F)c1)c1cc(Cl)ccc1O [IMD-0354] + Cc1nc(Nc2ncc(C(=O)Nc3c(C)cccc3Cl)s2)cc(N2CCN(CCO)CC2)n1 [Dasatinib] (partner 0.075 µM)
How it was run: as §1

[4] = compound: O=C(Nc1cc(C(F)(F)F)cc(C(F)(F)F)c1)c1cc(Cl)ccc1O [IMD-0354] + O=C(CCCCCCC(=O)Nc1ccccc1)NO [Vorinostat] (partner 1 µM)
How it was run: as §1

Cell Line	relative viability ([1]; first compound 0.04 µM)	relative viability ([1]; first compound 0.1265 µM)	relative viability ([1]; first compound 0.4 µM)	relative viability ([1]; first compound 1.265 µM)	relative viability ([1]; first compound 4 µM)	relative viability ([2]; first compound 0.01 µM)	relative viability ([2]; first compound 0.03162 µM)	relative viability ([2]; first compound 0.1 µM)	relative viability ([2]; first compound 0.3162 µM)	relative viability ([2]; first compound 1 µM)	relative viability ([3]; first compound 0.04 µM)	relative viability ([3]; first compound 0.1265 µM)	relative viability ([3]; first compound 0.4 µM)	relative viability ([3]; first compound 1.265 µM)	relative viability ([3]; first compound 4 µM)	relative viability ([4]; first compound 0.04 µM)	relative viability ([4]; first compound 0.1265 µM)	relative viability ([4]; first compound 0.4 µM)	relative viability ([4]; first compound 1.265 µM)	relative viability ([4]; first compound 4 µM)
NCI-H2342	0.728	0.707	0.601	0.656	0.5	0.686	0.768	0.642	0.619	0.776	0.329	0.326	0.236	0.312	0.327	0.769	0.853	0.53	0.697	0.364
LK-2	0.292	0.315		0.141	0.196	0.422	0.315	0.367	0.2	0.307	0.291	0.288	0.309	0.224	0.22	0.291	0.284		0.158	0.216
SK-LU-1	0.775	0.657	0.441	0.264	0.328	0.826	0.721	0.777	0.777	0.538	0.173	0.188	0.154	0.139	0.134	0.796	0.597	0.623	0.194	0.264
HCC-366	0.423	0.395	0.248	0.0815	0.0425	0.441	0.408	0.166	0.242	0.0455	0.681	0.792	0.382	0.221	0.0518	0.314	0.439	0.206	0.165	0.0652
201T	0.797	0.807	0.851	0.828	0.331	1.07	1.04	1.02	0.559	0.976	0.625	0.586	0.479	0.283	0.346	0.958	1.07	0.813	0.537	0.31
HCC-827	0.369	0.346	0.296	0.19	0.196	0.854	0.887	0.85	0.567	0.923	0.357	0.301	0.348	0.235	0.248	0.86	0.841	0.706	0.264	0.29
NCI-H647	0.381	0.426	0.237	0.117	0.106	0.646	0.536	0.441	0.548	0.251	0.263	0.0872	0.132	0.0483	0.0895	0.76	0.603	0.3	0.128	0.0744
NCI-H2023	0.262	0.222	0.167	0.0889	0.0963	0.564	0.355		0.15	0.0756	0.713	0.497	0.361	0.108	0.113	0.7	0.738	0.464	0.127	0.104
NCI-H520	0.512	0.462	0.435	0.158	0.192	0.734	0.681	0.661	0.642	0.291	0.21	0.185	0.186	0.132	0.163	0.815	0.709	0.51	0.192	0.248
RERF-LC-KJ	0.901	0.64	0.493	0.183	0.166	0.724	0.756	0.532	0.589	0.54	1.08	0.727	0.614	0.208	0.251	0.775	0.677	0.542	0.167	0.172
A-427	0.709	0.593	0.522	0.15	0.175	0.879	0.884	0.872	0.805	0.548	0.813	0.772	0.346	0.112	0.137	0.891	0.855	0.397	0.164	0.162
NCI-H441	0.223	0.256	0.247	0.131	0.146	0.538	0.984	0.707	0.618	0.556	0.611	0.583	0.499	0.191	0.229	0.971	0.82	0.416	0.246	0.236
NCI-H1792	0.675	0.38	0.387	0.358	0.174						0.906	0.69	0.545	0.406	0.416					
SW 1573	0.814	0.588	0.245	0.115	0.0911	0.726	0.668	0.116	0.15	0.214	0.763	0.449	0.242	0.128	0.0881	1.08	0.676	0.429	0.158	0.0883
